Measurements as given in publication PMC8407143 (Bioorganic & medicinal chemistry letters, 2021).
“Also recorded” adds a separate entry of the source.

Experiments:
[1] = target: B. pseudomallei IspF (BpIspF) (Burkholderia pseudomallei, UniProt Q3JRA0); assay: biochemical; format: binding; conditions: for Kd: KD,app
BpIspF = BpIspF (Burkholderia pseudomallei, UniProt Q3JRA0); format: binding
E. coli IspF [2] = target: T1, E. coli IspF (Escherichia coli, UniProt P62617); format: binding; conditions: pH 7.4
T1 sequence (P62617 1-159): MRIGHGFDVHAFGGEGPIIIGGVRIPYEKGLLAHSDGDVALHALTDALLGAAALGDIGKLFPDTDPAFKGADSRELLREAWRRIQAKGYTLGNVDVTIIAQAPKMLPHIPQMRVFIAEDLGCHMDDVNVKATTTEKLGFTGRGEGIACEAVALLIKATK

E. coli IspF [3] = target: T1, E. coli IspF; conditions: cited from earlier work
E. coli IspF [4] = target: T1, E. coli IspF; conditions: cited from earlier work; remark: listed apart in the source

Chain of BpIspF (Q3JRA0 whole entry, looked up): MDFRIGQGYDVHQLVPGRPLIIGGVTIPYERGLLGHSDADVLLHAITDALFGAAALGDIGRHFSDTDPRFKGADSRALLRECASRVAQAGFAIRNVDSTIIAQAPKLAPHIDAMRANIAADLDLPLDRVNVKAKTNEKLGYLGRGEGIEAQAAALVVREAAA
Chain of B. pseudomallei IspF (BpIspF) (Q3JRA0 whole entry, looked up): as above

N[C@@H](Cc1c[nH]c2ccccc12)C(=O)O [L-tryptophan, reference compound]
Kd [1]: > 1000 µM | binding (in words) ([1]; pH 7.4): did not show appreciable binding

N[C@H](Cc1c[nH]c2ccccc12)C(=O)O [D-tryptophan, reference compound]
Kd [1]: > 1000 µM | binding (in words) ([1]; pH 7.4): undetectable binding; also recorded: did not show appreciable binding

N[C@@H](Cc1c[nH]c2ccccc12)C(=O)NO [L-tryptophan hydroxamate (3), L-tryptophan hydroxamate]
Relative Percent Saturation Transfer, proton A (BpIspF): 100% | Relative Percent Saturation Transfer, proton B (BpIspF): 60–65% | Relative Percent Saturation Transfer, proton C (BpIspF): 80–85% | Relative Percent Saturation Transfer, proton D (BpIspF): 75–80% | Relative Percent Saturation Transfer, proton E (BpIspF): 80–85% | Relative Percent Saturation Transfer, proton F (BpIspF): 25–30% | Relative Percent Saturation Transfer, proton G (BpIspF): 50–55% | binding at pH 6.0 compared to pH 7.4 (fold weaker) [1]: approximately 25 fold | N (stoichiometry) ([1]; pH 7.4): 1.5 ± 0.2 | N (stoichiometry) ([1]; pH 8): 1.4 ± 0.4 | N (stoichiometry) (E. coli IspF [2]): 1.2 ± 0.3 | Kd (E. coli IspF [3]): ~2 µM

N[C@H](Cc1c[nH]c2ccccc12)C(=O)NO [D-tryptophan hydroxamate]
change in affinity relative to L-tryptophan hydroxamate (3) [1]: less than a twofold drop in affinity; also recorded: less than two-fold weaker | N (stoichiometry) ([1]; pH 7.4): 0.7

CC(C)=CCC/C(C)=C/CC/C(C)=C/CO[P@@](=O)(O)OP(=O)(O)O (stereo in doubt) [farnesyl diphosphate (FPP), farnesyl diphosphate]
direct feedback inhibition of E. coli IspF (in words) (E. coli IspF [4]): did not observe direct feedback inhibition

CC(C)=CCC/C(C)=C/COP(=O)(O)OP(=O)(O)O [geranyl diphosphate (GPP), geranyl diphosphate, reference compound]
interaction with BpIspF by STD NMR (in words) (BpIspF): did not show significant interaction
